Experiments:
[1] = biological target: T1, BRAG2 (activation of myristoylated Arf6) (Homo sapiens, UniProt Q6DN90); assay: Nucleotide exchange kinetics on liposomes, activation of myristoylated Arf6; type: biochemical; settings: 50 μM
T1 construct: human BRAG2^Sec7 (390-594) and BRAG2^Sec7PH (390-811); made in house
Experimental: FIG. 2. Bragsin is a specific inhibitor of the ArfGEF BRAG2 • a. Bragsin1 has no effect on the Sec7 domain of human ArfGEFs in solution. Nucleotide exchange kinetics were measured by fluorescence kinetics in the presence of Bragsin1 (50 μM) or DMSO using purified Sec7 domains and a truncated version of Arf1 (D17Arf1), which can be activated in solution. […] Nucleotide exchange kinetics were determined in the presence of Bragsin1 (50 μM) or DMSO with ArfGEF constructs carrying membrane-binding domains and myristoylated Arf1. […] was artificially tethered to liposomes by a C-terminal hexahistidine tag as described in (Peurois, F. et al. Biochem J 474, 1259-1272 (2017). Representative kinetic profiles are given in FIG. 15. • c. Bragsin1 inhibits the activation of myristoylated Arf6 by BRAG2 on liposomes. Experiments were carried out as in FIG. 2b. Representative kinetic profiles are given in FIG. 16. • d. Dose-response of Bragsin1 and Bragsin2 towards myristoylated Arf1 and BRAG2 on liposomes. Experiments were carried out as in FIG. 2b. • e. Silencing of BRAG2 phenocopies the effect of Bragsin2 on the TGN46 compartment. […]
The effect of Bragsin1 on the GEF efficiency of representative human ArfGEFs was evaluated by fluorescence kinetics using highly purified recombinant Arf GTPases and ArfGEFs. […]

[2] = system: EEA1 (early endosome marker) in Hela cells; assay: Immunostaining and confocal microscopy of Hela cells; type: cell-based, human; settings: 50 μM, 30 min
Experimental: FIG. 1. Bragsin2 affects Arf pathways in cells • a. Chemical structures of Bragsin1 and Bragsin2 and derivatives used in this study. Chemical synthesis and structural characterization of the compounds are described in example 6. • b. Bragsin2 disperses the TGN46 and GM130 markers. HeLa cells were treated with either DMSO (0.25%) or Bragsin2 (50 μM) for 30 min, immunostained for TGN46, GM130 or EEA1 (green channel) and analysed by confocal microscopy. Dispersion of GM130 and TGN46 by Bragsin2 is reversible. Hela cells were treated as in FIG. 1a and were incubated for an additional 30 min in fresh medium (wash panel) prior to immunostaining and confocal microscopy analysis. Expression of Arf-mCherry constructs carrying an activating mutation rescues the effect of Bragsin2. Hela cells were transfected with constitutively active Q/L mutants of Arf-mCherry. Note the difference between non-transfected cells (white asterisk) and transfected cells. Scale bars, 10 μm.
Hela cells were grown in Dulbecco's modified Eagle's medium supplemented with Glutamax™ and 10% fetal bovine serum (Invitrogen). For immunofluorescence studies, cells were grown on Labtek glass slides (Nunc) and transfected for 18 to 24 h using Lipofectamine 2000 (Invitrogen), according to the supplier's instructions. When specified, cells were treated with the indicated concentration of small molecule or corresponding volume of vehicle (DMSO) in growth medium for 30 min at 37° C.
(§1) Immunostaining procedure was as described in (Viaud, J. et al. Structure-based discovery of an inhibitor of Arf activation by Sec7 domains through targeting of protein-protein complexes. Proc Natl Acad Sci USA 104, 10370-5 (2007)) except that secondary antibody incubation was performed for 1h using Alexa 488-conjugated goat anti-mouse (1:600) or donkey anti-sheep (1:500) IgG and Alexa 647-conjugated phalloidin (1:100). Anti-GM130 was used at dilution 1:200. Images were bidirectionally recorded using an inverted Leica TCS SP8 laser-scanning confocal microscope with a 100× (N. A. 1.40) oil objective (HCX APO, Leica). Fluorochromes were detected sequentially using excitation laser lines at 488 nm (Alexa 488), 594 nm (mCherry) and 633 nm (Alexa 647). Stacks were generated using a z-step of 0.5 μm and processed using Fiji/ImageJ (Schindelin, J. et al. Fiji: an open-source platform for biological-image analysis. Nat Methods 9, 676-82 (2012)). Images are representative of at least two independent experiments.

[3] = system: tubulin and actin networks in Hela cells; assay: as above; type: cell-based, human; settings: 50 μM, 30 min
Experimental: FIG. 10: Bragsin2 has no effect on the tubulin and actin networks in Hela cells. HeLa cells were treated with either DMSO (0.25%) or Bragsin2 (50 μM) for 30 min, immunostained for α-tubulin (green channel) or F-actin (magenta channel) and analysed by confocal microscopy.
Hela cells were grown in Dulbecco's modified Eagle's medium supplemented with Glutamax™ and 10% fetal bovine serum (Invitrogen). For immunofluorescence studies, cells were grown on Labtek glass slides (Nunc) and transfected for 18 to 24 h using Lipofectamine 2000 (Invitrogen), according to the supplier's instructions. […]
as §1, with “Anti-GM130 was used at dilution 1:200.” left out, “Stacks were generated using a z-step of 0.5 μm and processed using Fiji/ImageJ (Schindelin, J. et al. Fiji: an open-source platform for biological-image analysis. Nat Methods 9, 676-82 (2012)). Images are representative of at least two independent experiments.” left out

T1 sequence (Q6DN90 512-933): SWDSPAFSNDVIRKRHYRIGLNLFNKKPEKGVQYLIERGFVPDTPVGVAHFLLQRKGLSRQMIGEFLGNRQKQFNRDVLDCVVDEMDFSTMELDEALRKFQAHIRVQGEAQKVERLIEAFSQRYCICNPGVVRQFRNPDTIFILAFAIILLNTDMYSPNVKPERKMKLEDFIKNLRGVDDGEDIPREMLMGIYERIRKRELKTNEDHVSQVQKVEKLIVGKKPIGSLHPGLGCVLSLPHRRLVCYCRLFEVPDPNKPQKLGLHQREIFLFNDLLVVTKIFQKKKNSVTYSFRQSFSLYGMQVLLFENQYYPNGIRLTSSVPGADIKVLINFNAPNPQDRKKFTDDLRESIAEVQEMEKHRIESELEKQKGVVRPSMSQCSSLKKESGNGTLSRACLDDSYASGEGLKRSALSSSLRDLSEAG

Cc1ccc2oc(C(F)(F)F)cc(=O)c2c1[N+](=O)[O-] [Bragsin1, 6-methyl-5-nitro-2-(trifluoromethyl)-4H-chromen-4-one]
Inhibition of BRAG2-mediated activation of myristoylated Arf6 [1]: inhibits

COc1ccc2oc(C(F)(F)F)cc(=O)c2c1[N+](=O)[O-] [Bragsin2, 6-methoxy-5-nitro-2-(trifluoromethyl)-4H-chromen-4-one]
Effect on early endosome marker EEA1 [2]: no effect
Effect on tubulin and actin networks [3]: no effect

Source: patent US12152012B2, “BRAG2 inhibitors and applications thereof” (CENTRE NATIONAL DE LA RECHERCHE SCIENTIFIQUE, priority 2018, dated 2024)
